Experimental data reported in patent publication US20260242419A1, “A CYCLIC PEPTIDE FOR TRAPPING INTERLEUKIN-1 BETA” (Merck Sharp & Dohme LLC, priority 2023, published 2026).
Starred links: 1 amine or outer side, 2 acyl side, 3 side chain; linkers in the order of their positions; H or OH if unused. Non-standard residues stand in square brackets, D forms with d. Residues, ends and D or L forms follow the SMILES beside them. Trp(βS-Me,4-F) = C[C@@H](c1c[nH]c2cccc(F)c12)[C@H](N)C(=O)O; Bip(4'-COOH) = N[C@@H](Cc1ccc(-c2ccc(C(=O)O)cc2)cc1)C(=O)O; Ala(1-bicyclo(1.1.1)pentyl) = N[C@@H](CC12CC(C1)C2)C(=O)O; dPro(4R-Bzl(4-F)) = O=C(O)[C@H]1C[C@@H](Cc2ccc(F)cc2)CN1; X3 = CC(=O)NCCOc1ccc(C[C@H](N[*:1])C(=O)[*:2])cn1; Ala(pyrimidin-5-yl) = N[C@@H](Cc1cncnc1)C(=O)O; Phe(4-COOH) = N[C@@H](Cc1ccc(C(=O)O)cc1)C(=O)O; Pro(cis-4-F) = O=C(O)[C@@H]1C[C@H](F)CN1; AEF = NCCOc1ccc(C[C@H](N)C(=O)O)cc1; 4Pal = N[C@@H](Cc1ccncc1)C(=O)O; Orn = NCCC[C@H](N)C(=O)O; Dab = NCC[C@H](N)C(=O)O; Dap = NC[C@H](N)C(=O)O; Aib = CC(C)(N)C(=O)O

Biological target: T1, IL-1β (Homo sapiens, UniProt P01584)
T1 construct: purchased BioLegend 579404
T1 sequence (P01584 117-269): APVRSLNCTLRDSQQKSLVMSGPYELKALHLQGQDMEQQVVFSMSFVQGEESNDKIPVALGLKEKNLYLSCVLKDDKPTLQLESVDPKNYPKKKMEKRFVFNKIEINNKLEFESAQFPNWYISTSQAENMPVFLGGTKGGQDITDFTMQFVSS
Assay: IL-6 assay in MRC5 cells: inhibition of IL-1β induced IL-6 secretion (AlphaLISA)
Format: cell-based
Conditions: inhibition of IL-1β induced IL-6 secretion in MRC5 cells; read-out: MRC5 IC50
Method: Procedure for IL-6 Assay in MRC5 Cells
The inhibition of IL-1β induced IL-6 secretion was evaluated in MRC5 cells. Recombinant human IL-1β (BioLegend 579404) at 2λ EC80 concentration was prepared in seeding medium. EMEM (ATCC 30-2003) with 0.025% BSA (Sigma A9576), 1×penicillin/streptomycin (Gibco 15070-063), 1×NEAA (Gibco 11140-050), 1×GlutaMax (Gibco 35050-061), and 1×sodium pyruvate (Gibco 11360-070), 20 μL of IL-1β was added to a 384-well collagen-coated plate (Corning 354664) and pre-incubated at ambient temperature for 1 hour with 200 nL of compound dispensed using an ECHO 555 liquid handler. Human lung fibroblast MRC5 cells (ATCC CCL-171) were added at a density of 3000 cells/20 μL per well. The cells were prepared by passaging three times in growth medium, EMEM (ATCC 30-2003) with 10% fetal bovine serum (Gibco 16140-071), 1×penicillin/streptomycin (Gibco 15070-063), 1×NEAA (Gibco 11140-050), 1×GlutaMax (Gibco 35050-061), and 1×sodium pyruvate (Gibco 11360-070) in collagen-coated T175 flasks (Greiner 661950) and harvested in seeding medium after 5 minutes of 0.25% trypsin-EDTA (Gibco 25200-056) digestion. The 384-well collagen-coated plate, containing a final volume of 40 μL, was incubated at 37° C., 5% CO2 overnight. 5 μL of the conditioned medium was transferred to a 384-well AlphaLISA plate (PerkinElmer 6005350) for detection of IL-6 using the human AlphaLISA IL-6 kit (PerkinElmer AL223F) as per the manufacturer's protocol. 20 μL of the acceptor bead/biotinylated antibody mix was added to the 384-well AlphaLISA plate and incubated for 1 hour at ambient temperature. The donor bead mix was protected from light and 25 μL was added to the plate and incubated for 30 minutes at ambient temperature. The AlphaLISA plate was read on an EnVision multimode plate reader (Perkin Elmer model 2104) using the AlphaScreen setting (laser exc at 680 nm and emis at […]). Dose response curves and IC50 values were analyzed using a 4-parameter logistic equation in Spotfire software (Tibco, Palo Alto, CA).

Structure (SMILES) | IC50
C[C@@H](c1c[nH]c2cccc(F)c12)[C@@H]1NC(=O)[C@@H]2C[C@H](F)CN2C(=O)CNC(=O)[C@H](Cc2ccc(C(=O)O)cc2)NC(=O)[C@H](Cc2ccncc2)NC(=O)[C@H](Cc2ccc(-c3ccc(C(=O)O)cc3)cc2)NC(=O)[C@H]2C[C@@H](Cc3ccc(F)cc3)CN2C(=O)CNC(=O)[C@H](CCN)NC(=O)[C@H](CCC(N)=O)NC(=O)[C@H](Cc2ccncc2)NC(=O)C(C)(C)NC(=O)[C@H](Cc2c[nH]c3ccccc23)NC(=O)[C@H](CCC(=O)O)NC(=O)C(C)(C)NC1=O [Example 2] (cyclo([Bip(4'-COOH)][4Pal][Phe(4-COOH)]G[Pro(cis-4-F)][Trp(βS-Me,4-F)][Aib]EW[Aib][4Pal]Q[Dab]G[dPro(4R-Bzl(4-F))])) | 23 pM
C[C@@H](c1c[nH]c2cccc(F)c12)[C@@H]1NC(=O)[C@@H]2C[C@H](F)CN2C(=O)CNC(=O)[C@H](Cc2ccc(C(=O)O)cc2)NC(=O)[C@H](Cc2ccncc2)NC(=O)[C@H](Cc2ccc(-c3ccc(C(=O)O)cc3)cc2)NC(=O)[C@H]2C[C@@H](Cc3ccc(F)cc3)CN2C(=O)CNC(=O)[C@H](CO)NC(=O)[C@H](CCC(N)=O)NC(=O)[C@H](Cc2cncnc2)NC(=O)C(C)(C)NC(=O)[C@H](Cc2c[nH]c3ccccc23)NC(=O)[C@H](CCC(=O)O)NC(=O)C(C)(C)NC1=O [Example 3] (cyclo([Bip(4'-COOH)][4Pal][Phe(4-COOH)]G[Pro(cis-4-F)][Trp(βS-Me,4-F)][Aib]EW[Aib][Ala(pyrimidin-5-yl)]QSG[dPro(4R-Bzl(4-F))])) | 37 pM
C[C@@H](c1c[nH]c2cccc(F)c12)[C@@H]1NC(=O)[C@@H]2C[C@H](F)CN2C(=O)CNC(=O)[C@H](Cc2ccc(C(=O)O)cc2)NC(=O)[C@H](Cc2ccncc2)NC(=O)[C@H](Cc2ccc(-c3ccc(C(=O)O)cc3)cc2)NC(=O)[C@H]2C[C@@H](Cc3ccc(F)cc3)CN2C(=O)CNC(=O)[C@H](CCN)NC(=O)[C@H](CCC(N)=O)NC(=O)[C@H](Cc2cncnc2)NC(=O)C(C)(C)NC(=O)[C@H](Cc2c[nH]c3ccccc23)NC(=O)[C@H](CCC(=O)O)NC(=O)C(C)(C)NC1=O [Example 4] (cyclo([Bip(4'-COOH)][4Pal][Phe(4-COOH)]G[Pro(cis-4-F)][Trp(βS-Me,4-F)][Aib]EW[Aib][Ala(pyrimidin-5-yl)]Q[Dab]G[dPro(4R-Bzl(4-F))])) | 31 pM
C[C@@H](c1c[nH]c2cccc(F)c12)[C@@H]1NC(=O)[C@@H]2C[C@H](F)CN2C(=O)CNC(=O)[C@H](Cc2ccc(C(=O)O)cc2)NC(=O)[C@H](Cc2ccncc2)NC(=O)[C@H](Cc2ccc(-c3ccc(C(=O)O)cc3)cc2)NC(=O)[C@H]2C[C@@H](Cc3ccc(F)cc3)CN2C(=O)CNC(=O)[C@H](CCN)NC(=O)[C@H](CCC(N)=O)NC(=O)[C@H](CO)NC(=O)C(C)(C)NC(=O)[C@H](Cc2c[nH]c3ccccc23)NC(=O)[C@H](CO)NC(=O)C(C)(C)NC1=O [Example 5] (cyclo([Bip(4'-COOH)][4Pal][Phe(4-COOH)]G[Pro(cis-4-F)][Trp(βS-Me,4-F)][Aib]SW[Aib]SQ[Dab]G[dPro(4R-Bzl(4-F))])) | 39 pM
C[C@@H](c1c[nH]c2cccc(F)c12)[C@@H]1NC(=O)[C@@H]2C[C@H](F)CN2C(=O)CNC(=O)[C@H](Cc2ccc(C(=O)O)cc2)NC(=O)[C@H](Cc2ccncc2)NC(=O)[C@H](Cc2ccc(-c3ccc(C(=O)O)cc3)cc2)NC(=O)[C@H]2C[C@@H](Cc3ccc(F)cc3)CN2C(=O)CNC(=O)[C@H](CN)NC(=O)[C@H](CCC(N)=O)NC(=O)[C@H](Cc2cncnc2)NC(=O)C(C)(C)NC(=O)[C@H](Cc2c[nH]c3ccccc23)NC(=O)[C@H](CCC(=O)O)NC(=O)C(C)(C)NC1=O [Example 7] (cyclo([Bip(4'-COOH)][4Pal][Phe(4-COOH)]G[Pro(cis-4-F)][Trp(βS-Me,4-F)][Aib]EW[Aib][Ala(pyrimidin-5-yl)]Q[Dap]G[dPro(4R-Bzl(4-F))])) | 26 pM
C[C@@H](c1c[nH]c2cccc(F)c12)[C@@H]1NC(=O)[C@@H]2C[C@H](F)CN2C(=O)CNC(=O)[C@H](Cc2ccc(C(=O)O)cc2)NC(=O)[C@H](Cc2ccncc2)NC(=O)[C@H](Cc2ccc(-c3ccc(C(=O)O)cc3)cc2)NC(=O)[C@H]2C[C@@H](Cc3ccc(F)cc3)CN2C(=O)CNC(=O)[C@H](CCCN)NC(=O)[C@H](CCC(N)=O)NC(=O)[C@H](Cc2cncnc2)NC(=O)C(C)(C)NC(=O)[C@H](Cc2c[nH]c3ccccc23)NC(=O)[C@H](CCC(=O)O)NC(=O)C(C)(C)NC1=O [Example 8] (cyclo([Bip(4'-COOH)][4Pal][Phe(4-COOH)]G[Pro(cis-4-F)][Trp(βS-Me,4-F)][Aib]EW[Aib][Ala(pyrimidin-5-yl)]Q[Orn]G[dPro(4R-Bzl(4-F))])) | 26 pM

Now from value to molecule:

IC50 | Structure (SMILES)
28 pM | C[C@@H](c1c[nH]c2cccc(F)c12)[C@@H]1NC(=O)[C@@H]2C[C@H](F)CN2C(=O)CNC(=O)[C@H](Cc2ccc(C(=O)O)cc2)NC(=O)[C@H](Cc2ccncc2)NC(=O)[C@H](Cc2ccc(-c3ccc(C(=O)O)cc3)cc2)NC(=O)[C@H]2C[C@@H](Cc3ccc(F)cc3)CN2C(=O)CNC(=O)[C@H](CCCCN)NC(=O)[C@H](CCC(N)=O)NC(=O)[C@H](Cc2cncnc2)NC(=O)C(C)(C)NC(=O)[C@H](Cc2c[nH]c3ccccc23)NC(=O)[C@H](CCC(=O)O)NC(=O)C(C)(C)NC1=O [Example 9] (cyclo([Bip(4'-COOH)][4Pal][Phe(4-COOH)]G[Pro(cis-4-F)][Trp(βS-Me,4-F)][Aib]EW[Aib][Ala(pyrimidin-5-yl)]QKG[dPro(4R-Bzl(4-F))]))
27 pM | CC(=O)NCCOc1ccc(C[C@@H]2NC(=O)[C@H]3C[C@@H](Cc4ccc(F)cc4)CN3C(=O)CNC(=O)[C@H](CCN)NC(=O)[C@H](CCC(N)=O)NC(=O)[C@H](Cc3cncnc3)NC(=O)C(C)(C)NC(=O)[C@H](Cc3c[nH]c4ccccc34)NC(=O)[C@H](CCC(=O)O)NC(=O)C(C)(C)NC(=O)[C@H]([C@@H](C)c3c[nH]c4cccc(F)c34)NC(=O)[C@@H]3C[C@H](F)CN3C(=O)CNC(=O)[C@H](Cc3ccc(C(=O)O)cc3)NC(=O)[C@H](Cc3ccncc3)NC2=O)cc1 [Example 10] (cyclo([AEF](Ac)[4Pal][Phe(4-COOH)]G[Pro(cis-4-F)][Trp(βS-Me,4-F)][Aib]EW[Aib][Ala(pyrimidin-5-yl)]Q[Dab]G[dPro(4R-Bzl(4-F))]))
45 pM | CC(=O)NCCOc1ccc(C[C@@H]2NC(=O)[C@H]3C[C@@H](Cc4ccc(F)cc4)CN3C(=O)CNC(=O)[C@H](CN)NC(=O)[C@H](CCC(N)=O)NC(=O)[C@H](Cc3cncnc3)NC(=O)C(C)(C)NC(=O)[C@H](Cc3c[nH]c4ccccc34)NC(=O)[C@H](CCC(=O)O)NC(=O)C(C)(C)NC(=O)[C@H]([C@@H](C)c3c[nH]c4cccc(F)c34)NC(=O)[C@@H]3C[C@H](F)CN3C(=O)CNC(=O)[C@H](Cc3ccc(C(=O)O)cc3)NC(=O)[C@H](Cc3ccncc3)NC2=O)cc1 [Example 11] (cyclo([AEF](Ac)[4Pal][Phe(4-COOH)]G[Pro(cis-4-F)][Trp(βS-Me,4-F)][Aib]EW[Aib][Ala(pyrimidin-5-yl)]Q[Dap]G[dPro(4R-Bzl(4-F))]))
72 pM | CC(=O)NCCOc1ccc(C[C@@H]2NC(=O)[C@H]3C[C@@H](Cc4ccc(F)cc4)CN3C(=O)CNC(=O)[C@H](CCN)NC(=O)[C@H](CCC(N)=O)NC(=O)[C@H](Cc3cncnc3)NC(=O)C(C)(C)NC(=O)[C@H](Cc3c[nH]c4ccccc34)NC(=O)[C@H](CCC(=O)O)NC(=O)C(C)(C)NC(=O)[C@H]([C@@H](C)c3c[nH]c4cccc(F)c34)NC(=O)[C@@H]3C[C@H](F)CN3C(=O)CNC(=O)[C@H](Cc3ccc(C(=O)O)cc3)NC(=O)[C@H](Cc3ccncc3)NC2=O)cn1 [Example 12] (cyclo([X3][4Pal][Phe(4-COOH)]G[Pro(cis-4-F)][Trp(βS-Me,4-F)][Aib]EW[Aib][Ala(pyrimidin-5-yl)]Q[Dab]G[dPro(4R-Bzl(4-F))]))
22 pM | C[C@@H](c1c[nH]c2cccc(F)c12)[C@@H]1NC(=O)[C@@H]2C[C@H](F)CN2C(=O)CNC(=O)[C@H](Cc2ccc(C(=O)O)cc2)NC(=O)[C@H](CC23CC(C2)C3)NC(=O)[C@H](Cc2ccc(-c3ccc(C(=O)O)cc3)cc2)NC(=O)[C@H]2C[C@@H](Cc3ccc(F)cc3)CN2C(=O)CNC(=O)[C@H](CCN)NC(=O)[C@H](CCC(N)=O)NC(=O)[C@H](Cc2cncnc2)NC(=O)C(C)(C)NC(=O)[C@H](Cc2c[nH]c3ccccc23)NC(=O)[C@H](CCC(=O)O)NC(=O)C(C)(C)NC1=O [Example 13] (cyclo([Bip(4'-COOH)][Ala(1-bicyclo(1.1.1)pentyl)][Phe(4-COOH)]G[Pro(cis-4-F)][Trp(βS-Me,4-F)][Aib]EW[Aib][Ala(pyrimidin-5-yl)]Q[Dab]G[dPro(4R-Bzl(4-F))]))
